{
  "source": "paper PMC3129627",
  "about": "(Organic letters, 2011)",
  "key": {"human AChE": {"target": "human AChE (Homo sapiens, UniProt P22303)", "sequence (P22303 32-614)": "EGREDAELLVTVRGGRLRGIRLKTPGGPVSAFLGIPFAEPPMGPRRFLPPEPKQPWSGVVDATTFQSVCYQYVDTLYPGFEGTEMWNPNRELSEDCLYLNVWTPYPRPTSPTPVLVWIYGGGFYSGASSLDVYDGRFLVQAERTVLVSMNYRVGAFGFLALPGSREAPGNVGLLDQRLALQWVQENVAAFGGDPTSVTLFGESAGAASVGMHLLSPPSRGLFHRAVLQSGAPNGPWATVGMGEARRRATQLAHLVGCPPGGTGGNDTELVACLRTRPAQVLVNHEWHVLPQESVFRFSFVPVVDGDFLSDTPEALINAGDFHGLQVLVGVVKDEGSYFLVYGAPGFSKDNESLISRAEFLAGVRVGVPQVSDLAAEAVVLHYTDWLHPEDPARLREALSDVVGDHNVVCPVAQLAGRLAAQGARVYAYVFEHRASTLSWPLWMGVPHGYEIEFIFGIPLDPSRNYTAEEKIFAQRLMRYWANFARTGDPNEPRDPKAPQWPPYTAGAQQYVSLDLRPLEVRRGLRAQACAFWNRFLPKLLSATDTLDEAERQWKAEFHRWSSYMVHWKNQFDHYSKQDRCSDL", "assay": "Inhibition of human AChE, modified Ellman assay", "assay_type": "biochemical", "details": "racemic (±) synthetic compounds"}, "[1]": {"target": "acetyl cholinesterase (AChE) from the housefly (CSMA strain)", "details": "natural product; cited from earlier work"}, "[2]": {"target": "acetyl cholinesterase (AChE) from the brown plant hopper", "details": "natural product; cited from earlier work"}},
  "data": [
    {"compound": "CO[P@]1(=O)OC[C@H]2COC(=O)C2=C(C)O1", "note": "[compound 1, Cyclophostin]", "values": [
      {"measurement": "IC50", "setting": "human AChE", "value": "~40", "unit": "nM"},
      {"measurement": "IC50", "setting": "[1]", "value": 0.76, "unit": "nM"},
      {"measurement": "IC50", "setting": "[2]", "value": 0.76, "unit": "nM"}
    ]}
  ]
}
